Measurements from publication PMC5052559, “A fragment-based approach applied to a highly flexible target: Insights and challenges towards the inhibition of HSP70 isoforms” (Scientific Reports, 2016).

Legend:
WT HSC70-NBD = biological target: T1, WT HSC70-NBD (Homo sapiens, UniProt P11142); test: SPR binding to wild-type HSC70-NBD; conditions: for Kd: SPR, 25 °C; for LE (ligand efficiency): calculated using the SPR Kd on WT HSC70-NBD
T1 construct: WT HSPA8 (HSC70) residues 1 to 381; GST (N, cleaved yes); made in house; host or cells: E. coli BL21-AI (expressed as described for FL-HSP72)
Procedure: (§1) SPR experiments were carried out using a Biacore T200 (GE Healthcare) at 25 °C. Amine coupling chemistry was used to immobilise the HSC70 NBD domain and S275W, S275F and S275A HSC70-NBD mutant proteins on a carboxymethyl-5′-dextran (CM5) sensor chip. The chip’s surface was activated with a 10 min injection of a 1:1 mixture of 100 mM N-hydroxysuccinimide and 400 mM 1-ethyl-3-(3-dimethylaminopropyl)-carbodiimide. […] The remaining activated groups on the surface were blocked with a 7 min injection of 1 M ethanolamine at pH 8.5. […] Flow cell one was left unmodified as the reference surface.
(§2) In addition, a DMSO correction curve, prepared as described in the GE manual, was used to correct the effects of the solvent on signal intensity. Raw SPR data from the single point screen was processed and analysed using Pipeline Pilot version 8.0.1.500[37]. Firstly, the reported binding level for each fragment was corrected by subtraction of the buffer blank.
(§3) The initial fragment hits were further investigated in a three-point concentration-response experiment against freshly immobilised WT HSC70-NBD and the S275W HSC70-NBD mutants using the same experimental protocol as for the primary screen. Compound dilutions of 50, 100 and 200 μM were generated using the ECHO 550.

HSC70-NBD S275A mutant = biological target: T2, HSC70-NBD S275A mutant (Homo sapiens, UniProt P11142, S275A); test: SPR binding to S275A HSC70-NBD mutant; conditions: n = 3
T2 construct: WT HSPA8 (HSC70) residues 1 to 381; GST (N, cleaved yes); made in house; host or cells: E. coli BL21-AI (expressed as described for FL-HSP72)
Procedure: SPR experiments were carried out using a Biacore T200 (GE Healthcare) at 25 °C. Amine coupling chemistry was used to immobilise the HSC70 NBD domain and […], […] and […] HSC70-NBD mutant proteins on a carboxymethyl-5'-dextran (CM5) sensor chip. […] The remaining activated groups on the surface were blocked with a 7 min injection of 1 M ethanolamine at pH 8.5. For all the above procedures the flow rate was maintained at 10 μL/min and a 1x phosphate buffered saline running buffer (PBS running buffer: 10 mM NaHPO4/NaH2PO4 pH 7.4, 2.7 mM KCl, 137 mM NaCl) was used during immobilisation. Approximately ~13,000 response units (RU) of protein could be routinely captured on the CM5 chip on flow cells two to four. Flow cell one was left unmodified as the reference surface. Our in-house fragment library of 1962 fragments at a stock concentration of 100 mM in 100% (v/v) was screened. SPR screening plates were prepared by dispensing of 0.1 μL of each fragment in 384-well polypropylene V-bottomed plates (Greiner) using an ECHO 550 acoustic liquid dispenser (Labcyte) followed by addition of fresh DMSO and running buffer to give a final fragment concentration of 125 μM in 5% (v/v) DMSO in an assay volume of 80 μL. The initial fragment hits were further investigated in a three-point concentration-response experiment against freshly immobilised WT HSC70-NBD and the […] HSC70-NBD mutants using the same experimental protocol as for the primary screen. Compound dilutions of 50, 100 and 200 μM were generated using the ECHO 550. A confirmed hit was defined as a fragment giving greater than 10% response compared to adenosine and these were prioritised on the basis of their concentration response, ratio of experimental and theoretical Rmax, and shape of the sensorgrams, and expected fast on/fast off binding kinetics. […] HSC70-NBD mutant. […] Nucleotides were dissolved in double distilled water to give 10 mM stock solutions, then diluted 40X with DMSO and tested using a concentration range between 0.0625 μM and 2.5 μM.

S275F HSC70-NBD = biological target: T3, S275F HSC70-NBD (Homo sapiens, UniProt P11142, S275F); test: SPR binding to S275F HSC70-NBD mutant
T3 construct: WT HSPA8 (HSC70) residues 1 to 381; GST (N, cleaved yes); made in house; host or cells: E. coli BL21-AI (expressed as described for FL-HSP72)
Procedure: SPR experiments were carried out using a Biacore T200 (GE Healthcare) at 25 °C. Amine coupling chemistry was used to immobilise the HSC70 NBD domain and S275W, S275F and S275A HSC70-NBD mutant proteins on a carboxymethyl-5′-dextran (CM5) sensor chip. The chip’s surface was activated with a 10 min injection of a 1:1 mixture of 100 mM N-hydroxysuccinimide and 400 mM 1-ethyl-3-(3-dimethylaminopropyl)-carbodiimide. The HSC70 proteins (70 μg/mL in 10 mM sodium acetate, 750 μM ADP, pH 5.0) were immobilised on the surface over a 10 min injection period. The remaining activated groups on the surface were blocked with a 7 min injection of 1 M ethanolamine at pH 8.5. For all the above procedures the flow rate was maintained at 10 μL/min and a 1x phosphate buffered saline running buffer (PBS running buffer: 10 mM NaHPO4/NaH2PO4 pH 7.4, 2.7 mM KCl, 137 mM NaCl) was used during immobilisation. Approximately ~13,000 response units (RU) of protein could be routinely captured on the CM5 chip on flow cells two to four. Flow cell one was left unmodified as the reference surface. Our in-house fragment library of 1962 fragments at a stock concentration of 100 mM in 100% (v/v) was screened. SPR screening plates were prepared by dispensing of 0.1 μL of each fragment in 384-well polypropylene V-bottomed plates (Greiner) using an ECHO 550 acoustic liquid dispenser (Labcyte) followed by addition of fresh DMSO and running buffer to give a final fragment concentration of 125 μM in 5% (v/v) DMSO in an assay volume of 80 μL.
The full fragment screen was carried out against freshly immobilised WT-HSC70 NBD and the S275W and S275F HSC70-NBD mutants, using the same experimental setting as for the clean screen and a final fragment concentration of 125 μM. Injections of running buffer and of 125 μM adenosine, which was used as a positive control to monitor the health of the protein, were carried out at intervals of 35 cycles throughout the screen. In addition, a DMSO correction curve, prepared as described in the GE manual, was used to correct the effects of the solvent on signal intensity. Raw SPR data from the single point screen was processed and analysed using Pipeline Pilot version 8.0.1.500[37]. Firstly, the reported binding level for each fragment was corrected by subtraction of the buffer blank. Secondly, the values were corrected for the molecular weight of each fragment and the binding was normalised to the binding level observed for the closest adenosine control. […] However, fragments with a binding level exceeding two times the theoretical Rmax were excluded, as we considered this an indication of superstoichiometric binding. Finally, fragments showing preferred binding to wild-type HSC70-NBD versus the HSC70-NBD mutants with a blocked adenine sub pocket were identified by plotting the binding levels of the fragments to wild-type HSC70-NBD against the binding levels of the respective mutant HSC70-NBD variants and added to the primary hit list. In total this procedure yielded 54 initial fragment hits.

S275W HSC70-NBD = biological target: T4, S275W HSC70-NBD (Homo sapiens, UniProt P11142, S275W); test: SPR binding to S275W HSC70-NBD mutant
T4 construct: WT HSPA8 (HSC70) residues 1 to 381; GST (N, cleaved yes); made in house; host or cells: E. coli BL21-AI (expressed as described for FL-HSP72)
Procedure: as §1, §2, §3

HSP70 = biological target: HSP70; set-up: method as in PMID 19256508; conditions: read-out: SPR Kd; cited from earlier work
HSP72 = biological target: T5, HSP72 (Homo sapiens, UniProt P0DMV8); test: Ligand observed NMR (CPMG) binding to HSP72 with ATP competition; conditions: 0.5 mM compound, 20 µM HSP72, ± 100 µM ATP; 1D CPMG
T5 construct: 6xHis followed by HRV 3C protease site (N); made in house; host or cells: E. coli BL21-AI
Procedure: Ligand observed NMR experiments
NMR experiments were conducted at a 1H frequency of 500 MHz using a Bruker Avance 500 spectrometer (Bruker, […]) equipped with a 1.7 mm TXI probe. All data were acquired and processed using Bruker Topspin 3.2. The Relaxation edited 1H-NMR spectrum was acquired at 295K using the CPMG sequence with a spin-lock time of 600 ms. The water signal was suppressed using presaturation during relaxation delay (2 s) and by using the Watergate sequence subsequent to the CPMG sequence. For each spectrum 64 transients were acquired. The three samples for which spectra were collected consisted of 50 mM phosphate buffer at pH 7.5, 10% (v/v) D2O and 0.5 mM compound 30, 0.5 mM compound 30 in the presence of 20 µM HSP72, and 0.5 mM compound 30 in the presence of 20 µM HSP72 and 100 µM ATP respectively (see Figure S 8).

T4 sequence (P11142 1-381 S275W): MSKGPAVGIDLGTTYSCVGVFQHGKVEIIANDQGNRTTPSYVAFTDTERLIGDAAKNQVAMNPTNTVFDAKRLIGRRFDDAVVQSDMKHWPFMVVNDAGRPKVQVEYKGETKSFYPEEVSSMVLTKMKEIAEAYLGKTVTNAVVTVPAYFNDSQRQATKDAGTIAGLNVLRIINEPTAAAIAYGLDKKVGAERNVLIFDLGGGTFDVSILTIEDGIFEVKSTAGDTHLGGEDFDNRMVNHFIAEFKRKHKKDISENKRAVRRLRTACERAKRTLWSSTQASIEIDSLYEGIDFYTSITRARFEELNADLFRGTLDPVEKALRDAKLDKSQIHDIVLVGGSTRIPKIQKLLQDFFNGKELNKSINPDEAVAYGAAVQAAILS
T1 sequence (P11142 1-381): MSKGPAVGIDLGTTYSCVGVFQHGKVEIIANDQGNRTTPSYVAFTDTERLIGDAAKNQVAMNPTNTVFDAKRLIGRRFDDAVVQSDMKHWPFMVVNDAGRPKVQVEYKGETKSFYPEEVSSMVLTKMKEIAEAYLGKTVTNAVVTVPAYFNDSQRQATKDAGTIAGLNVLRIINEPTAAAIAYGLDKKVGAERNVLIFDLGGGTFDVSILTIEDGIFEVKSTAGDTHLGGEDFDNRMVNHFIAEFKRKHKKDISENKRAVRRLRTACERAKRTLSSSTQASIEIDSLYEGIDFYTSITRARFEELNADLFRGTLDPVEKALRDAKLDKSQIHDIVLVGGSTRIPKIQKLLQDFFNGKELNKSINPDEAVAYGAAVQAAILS
T3 sequence (P11142 1-381 S275F): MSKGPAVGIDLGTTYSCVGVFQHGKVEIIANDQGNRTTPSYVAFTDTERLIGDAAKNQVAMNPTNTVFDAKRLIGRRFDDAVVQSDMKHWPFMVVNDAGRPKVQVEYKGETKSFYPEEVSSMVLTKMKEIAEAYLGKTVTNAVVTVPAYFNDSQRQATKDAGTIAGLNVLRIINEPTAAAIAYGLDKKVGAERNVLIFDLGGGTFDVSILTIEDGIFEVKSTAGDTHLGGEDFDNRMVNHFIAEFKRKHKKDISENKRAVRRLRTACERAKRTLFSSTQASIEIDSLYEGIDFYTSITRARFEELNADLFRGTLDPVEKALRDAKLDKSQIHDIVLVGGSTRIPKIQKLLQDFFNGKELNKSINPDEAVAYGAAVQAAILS
T5 sequence (P0DMV8 whole entry): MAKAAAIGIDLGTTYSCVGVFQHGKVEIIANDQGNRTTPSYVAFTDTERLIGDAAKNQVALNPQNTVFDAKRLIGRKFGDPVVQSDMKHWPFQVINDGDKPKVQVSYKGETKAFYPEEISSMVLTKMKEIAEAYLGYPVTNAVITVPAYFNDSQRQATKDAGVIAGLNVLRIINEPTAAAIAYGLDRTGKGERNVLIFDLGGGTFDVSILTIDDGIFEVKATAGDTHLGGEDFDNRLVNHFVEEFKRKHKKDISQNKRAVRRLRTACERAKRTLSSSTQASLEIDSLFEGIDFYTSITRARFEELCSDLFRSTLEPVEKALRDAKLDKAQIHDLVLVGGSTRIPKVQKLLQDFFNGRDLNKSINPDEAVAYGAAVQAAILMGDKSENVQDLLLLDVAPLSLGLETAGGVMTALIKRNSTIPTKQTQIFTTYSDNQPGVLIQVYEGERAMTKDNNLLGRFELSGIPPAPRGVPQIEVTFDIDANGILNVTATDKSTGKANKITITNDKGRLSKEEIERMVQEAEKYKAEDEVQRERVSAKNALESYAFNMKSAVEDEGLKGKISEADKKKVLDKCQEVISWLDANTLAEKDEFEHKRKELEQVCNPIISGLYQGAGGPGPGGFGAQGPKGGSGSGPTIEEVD
T2 sequence (P11142 1-381 S275A): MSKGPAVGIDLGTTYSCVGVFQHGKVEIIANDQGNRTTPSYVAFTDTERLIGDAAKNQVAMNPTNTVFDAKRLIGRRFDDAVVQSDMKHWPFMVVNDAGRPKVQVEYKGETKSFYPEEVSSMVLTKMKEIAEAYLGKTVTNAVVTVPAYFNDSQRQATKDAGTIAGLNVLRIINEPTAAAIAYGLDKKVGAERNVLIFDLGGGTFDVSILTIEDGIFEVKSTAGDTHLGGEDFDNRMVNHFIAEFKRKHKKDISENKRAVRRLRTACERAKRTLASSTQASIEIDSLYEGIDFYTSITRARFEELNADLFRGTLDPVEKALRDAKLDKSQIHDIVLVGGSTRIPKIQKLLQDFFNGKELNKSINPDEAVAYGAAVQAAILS

Row | Compound | Kd (WT HSC70-NBD; mean ± SD, No binding = binding level ≤10RU at 1mM) [µM] | LE (ligand efficiency) (WT HSC70-NBD) | Kd (HSC70-NBD S275A mutant) [µM] | binding to S275F HSC70-NBD mutant (in words) (S275F HSC70-NBD) | binding to S275W HSC70-NBD mutant (in words) (S275W HSC70-NBD) | Kd (HSP70) [µM] | Kd (WT HSC70-NBD; mean ± standard deviation or standard error, triplicate unless marked duplicate/single) [µM] | binding to HSP72 by ligand observed NMR (HSP72) | Kd S275W HSC70-NBD (S275W HSC70-NBD; single measurement)
1 | Nc1ncnc2c1ncn2[C@@H]1O[C@H](CO)[C@@H](O)[C@H]1O [Adenosine, adenosine, reference compound] | 165 | 0.28 | 1800 ± 520 | abolished binding | abolished binding | – | – | – | –
2 | N#Cc1ccc(COC[C@H]2O[C@@H](n3c(NCc4ccc(Cl)c(Cl)c4)nc4c(N)ncnc43)[C@H](O)[C@@H]2O)cc1 [Compound 1, VER-155008] | – | – | – | abolished binding | abolished binding | 0.3 | – | – | –
3 | OC[C@H]1C[C@@H](Nc2ncnc3cccc(OCc4ccccn4)c23)[C@H](O)[C@@H]1O [Compound 30] | – | 0.20 | – | – | – | – | 75 | bind in the ATP-binding site | No binding
